# Measurements reported in ChEMBL document CHEMBL4229536, “In vitro and in vivo pharmacokinetic and pharmacodynamic study of MBRI-001, a deuterium-substituted plinabulin derivative as a potent anti-cancer agent” (Bioorg Med Chem, 2018).
# How the values were obtained:
# [1] = Stability in rat plasma at 1 uM after 5 mins by LC-MS/MS analysis; format: ADME, cell-free; details: read-out: Stability
# [2] = Stability in rat plasma at 1 uM after 10 mins by LC-MS/MS analysis; format: ADME, cell-free; details: read-out: Stability
# [3] = Stability in rat plasma at 1 uM after 20 mins by LC-MS/MS analysis; format: ADME, cell-free; details: read-out: Stability
# [4] = Stability in rat plasma at 1 uM after 60 mins by LC-MS/MS analysis; format: ADME, cell-free; details: read-out: Stability
# [5] = Stability in rat plasma at 1 uM after 90 mins by LC-MS/MS analysis; format: ADME, cell-free; details: read-out: Stability
# [6] = Stability in rat liver microsomes at 50 uM after 5 mins in presence of NADPH by LC-MS/MS analysis; format: ADME, microsome; details: liver microsomes, read-out: Stability
# [7] = Stability in rat liver microsomes at 50 uM after 20 mins in presence of NADPH by LC-MS/MS analysis; format: ADME, microsome; details: read-out: Stability
# [8] = Stability in rat liver microsomes at 50 uM after 120 mins in presence of NADPH by LC-MS/MS analysis; format: ADME, microsome; details: read-out: Stability
# [9] = Clearance in rat liver microsomes at 50 uM in presence of NADPH by LC-MS/MS analysis; format: ADME, microsome; details: read-out: CLH
# Cytochrome P450 2C9 = Cytochrome P450 2C9 (Homo sapiens, UniProt P11712); assay: Inhibition of CYP2C9 in human liver microsomes preincubated for 10 mins followed by NADPH addition measured after 10 mins by LC-MS/MS analysis; format: ADME
# Cytochrome P450 2C9, sequence (P11712 whole entry): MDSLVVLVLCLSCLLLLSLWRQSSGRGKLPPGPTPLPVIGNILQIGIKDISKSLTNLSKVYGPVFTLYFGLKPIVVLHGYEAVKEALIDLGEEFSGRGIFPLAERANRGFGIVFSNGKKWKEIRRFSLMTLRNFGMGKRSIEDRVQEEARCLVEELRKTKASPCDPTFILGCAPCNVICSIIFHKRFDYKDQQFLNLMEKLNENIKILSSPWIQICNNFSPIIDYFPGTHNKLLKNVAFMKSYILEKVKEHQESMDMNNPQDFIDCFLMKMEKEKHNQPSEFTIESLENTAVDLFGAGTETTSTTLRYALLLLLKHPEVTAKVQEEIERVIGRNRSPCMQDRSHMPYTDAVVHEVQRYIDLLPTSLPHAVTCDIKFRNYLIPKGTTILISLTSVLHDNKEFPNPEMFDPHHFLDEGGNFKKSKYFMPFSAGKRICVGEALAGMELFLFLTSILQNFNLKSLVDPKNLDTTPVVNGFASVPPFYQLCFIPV
# Cytochrome P450 2C19 = Cytochrome P450 2C19 (Homo sapiens, UniProt P33261); assay: Inhibition of CYP2C19 in human liver microsomes preincubated for 10 mins followed by NADPH addition measured after 10 mins by LC-MS/MS analysis; format: ADME
# Cytochrome P450 2C19, sequence (P33261 whole entry): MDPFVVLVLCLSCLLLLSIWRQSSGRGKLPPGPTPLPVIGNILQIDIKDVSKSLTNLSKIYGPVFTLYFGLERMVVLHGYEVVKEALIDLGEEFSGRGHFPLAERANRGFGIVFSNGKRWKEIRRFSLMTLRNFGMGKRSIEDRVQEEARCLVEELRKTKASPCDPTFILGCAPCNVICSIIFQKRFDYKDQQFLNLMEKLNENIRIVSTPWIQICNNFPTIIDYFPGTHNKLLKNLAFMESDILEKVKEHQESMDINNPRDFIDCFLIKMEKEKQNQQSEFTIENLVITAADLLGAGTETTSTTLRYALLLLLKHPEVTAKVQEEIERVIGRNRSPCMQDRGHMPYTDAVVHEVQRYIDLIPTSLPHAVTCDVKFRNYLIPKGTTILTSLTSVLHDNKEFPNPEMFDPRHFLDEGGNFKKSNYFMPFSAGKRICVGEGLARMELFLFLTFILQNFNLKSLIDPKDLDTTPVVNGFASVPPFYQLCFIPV
# Cytochrome P450 2D6 = Cytochrome P450 2D6 (Homo sapiens, UniProt P10635); assay: Inhibition of CYP2D6 in human liver microsomes preincubated for 10 mins followed by NADPH addition measured after 10 mins by LC-MS/MS analysis; format: ADME
# Cytochrome P450 2D6, sequence (P10635 whole entry): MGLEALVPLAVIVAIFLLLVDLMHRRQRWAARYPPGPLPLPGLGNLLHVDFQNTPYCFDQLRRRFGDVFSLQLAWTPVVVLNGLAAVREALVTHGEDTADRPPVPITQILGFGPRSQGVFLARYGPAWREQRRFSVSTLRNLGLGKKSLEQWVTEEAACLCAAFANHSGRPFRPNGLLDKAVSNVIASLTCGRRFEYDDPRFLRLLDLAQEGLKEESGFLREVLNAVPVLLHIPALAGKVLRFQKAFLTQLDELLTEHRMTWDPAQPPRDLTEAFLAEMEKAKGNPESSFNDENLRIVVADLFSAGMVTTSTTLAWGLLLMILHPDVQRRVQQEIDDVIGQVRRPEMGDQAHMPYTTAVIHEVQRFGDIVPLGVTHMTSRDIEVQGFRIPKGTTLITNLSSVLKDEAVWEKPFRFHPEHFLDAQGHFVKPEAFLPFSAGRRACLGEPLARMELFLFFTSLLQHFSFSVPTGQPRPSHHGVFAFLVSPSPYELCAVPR
# Cytochrome P450 3A4 = Cytochrome P450 3A4 (Homo sapiens, UniProt P08684); assay: Inhibition of CYP3A4 in human liver microsomes preincubated for 10 mins followed by NADPH addition measured after 10 mins by LC-MS/MS analysis; format: ADME
# Cytochrome P450 3A4, sequence (P08684 whole entry): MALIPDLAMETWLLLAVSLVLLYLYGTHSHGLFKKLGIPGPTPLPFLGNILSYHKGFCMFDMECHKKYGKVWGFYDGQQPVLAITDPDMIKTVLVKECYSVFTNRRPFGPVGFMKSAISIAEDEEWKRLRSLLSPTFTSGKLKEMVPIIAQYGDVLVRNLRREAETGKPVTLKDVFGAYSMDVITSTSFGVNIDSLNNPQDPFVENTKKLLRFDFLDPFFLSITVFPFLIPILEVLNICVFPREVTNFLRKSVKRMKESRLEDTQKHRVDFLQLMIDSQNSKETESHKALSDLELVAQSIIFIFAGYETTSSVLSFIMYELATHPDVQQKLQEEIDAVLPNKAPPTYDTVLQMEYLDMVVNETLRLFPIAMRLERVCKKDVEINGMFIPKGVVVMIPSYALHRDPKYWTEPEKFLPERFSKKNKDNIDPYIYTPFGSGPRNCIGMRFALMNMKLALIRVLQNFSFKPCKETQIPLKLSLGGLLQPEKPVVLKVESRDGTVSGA
# [10] = Protein binding in human plasma at 2 uM after 4 hrs by LC-MS/MS analysis; format: ADME, cell-free; details: read-out: PPB (converted)
# [11] = Protein binding in Sprague-Dawley rat plasma at 2 uM after 4 hrs by LC-MS/MS analysis; format: ADME, cell-free; details: read-out: PPB (converted)
# [12] = Half life in Wistar rat at 4 mg/kg, iv; format: ADME, organism-based; details: in vivo
# [13] = AUClast in Wistar rat at 4 mg/kg, iv; format: ADME, organism-based; set-up: dose 4 mg/kg, route intravenous, time 0 - last; details: in vivo
# [14] = Apparent volume of distribution in Wistar rat at 4 mg/kg, iv; format: ADME, organism-based; details: in vivo, read-out: Vz
# [15] = MRTlast in Wistar rat at 4 mg/kg, iv; format: ADME, organism-based; details: in vivo
# [16] = Drug uptake in Wistar rat pancreas at 6 mg/kg, iv measured after 0.5 hrs; format: ADME, organism-based; details: in vivo
# [17] = Drug uptake in Wistar rat large intestine at 6 mg/kg, iv measured after 0.5 hrs; format: ADME, organism-based; details: in vivo
# [18] = Drug uptake in Wistar rat lungs at 6 mg/kg, iv measured after 0.5 hrs; format: ADME, organism-based, Lung; details: in vivo
# [19] = Drug uptake in Wistar rat pancreas at 6 mg/kg, iv measured after 4 hrs; format: ADME, organism-based; details: in vivo
# [20] = Drug uptake in Wistar rat spleen at 6 mg/kg, iv measured after 4 hrs; format: ADME, organism-based; details: in vivo
# [21] = Drug uptake in Wistar rat small intestine at 6 mg/kg, iv measured after 4 hrs; format: ADME, organism-based; details: in vivo
# [22] = Drug uptake in Wistar rat pancreas at 6 mg/kg, iv measured after 8 hrs; format: ADME, organism-based; details: in vivo
# [23] = Drug uptake in Wistar rat spleen at 6 mg/kg, iv measured after 8 hrs; format: ADME, organism-based; details: in vivo
# [24] = Drug uptake in Wistar rat liver at 6 mg/kg, iv measured after 8 hrs; format: ADME, organism-based; details: in vivo
# [25] = Drug uptake in Wistar rat kidney at 6 mg/kg, iv measured after 8 hrs; format: ADME, organism-based; details: in vivo
# [26] = Drug uptake in Wistar rat spleen at 6 mg/kg, iv measured after 12 hrs; format: ADME, organism-based; details: in vivo
# [27] = Drug uptake in Wistar rat large intestine at 6 mg/kg, iv measured after 12 hrs; format: ADME, organism-based; details: in vivo
# [28] = Drug uptake in Wistar rat brain at 6 mg/kg, iv measured after 12 hrs; format: ADME, organism-based; details: in vivo
# [29] = Drug excretion in Wistar rat feces at 4 mg/kg, iv measured after 2 hrs; format: ADME, organism-based; details: faeces, read-out: Drug excretion
# [30] = Drug excretion in Wistar rat feces at 4 mg/kg, iv measured after 4 hrs; format: ADME, organism-based; details: faeces, read-out: Drug excretion
# [31] = Drug excretion in Wistar rat feces at 4 mg/kg, iv measured after 24 hrs; format: ADME, organism-based; details: faeces, read-out: Drug excretion
# [32] = Drug excretion in Wistar rat feces at 4 mg/kg, iv measured after 36 hrs; format: ADME, organism-based; details: faeces, read-out: Drug excretion
# [33] = Drug excretion in Wistar rat feces at 4 mg/kg, iv measured after 72 hrs; format: ADME, organism-based; details: faeces, read-out: Drug excretion
# [34] = Drug excretion in Wistar rat feces at 4 mg/kg, iv measured after 108 hrs; format: ADME, organism-based; details: faeces, read-out: Drug excretion
# [35] = Drug excretion in Wistar rat urine at 4 mg/kg, iv measured after 0.5 hrs; format: ADME, organism-based; details: read-out: Drug excretion
# [36] = Drug excretion in Wistar rat urine at 4 mg/kg, iv measured after 2 hrs; format: ADME, organism-based; details: read-out: Drug excretion
# [37] = Drug excretion in Wistar rat urine at 4 mg/kg, iv measured after 4 hrs; format: ADME, organism-based; details: read-out: Drug excretion
# [38] = Drug excretion in Wistar rat urine at 4 mg/kg, iv measured after 24 hrs; format: ADME, organism-based; details: read-out: Drug excretion
# [39] = Drug excretion in Wistar rat urine at 4 mg/kg, iv measured after 48 hrs; format: ADME, organism-based; details: read-out: Drug excretion
# [40] = Drug excretion in Wistar rat urine at 4 mg/kg, iv measured after 72 hrs; format: ADME, organism-based; details: read-out: Drug excretion
# [41] = Drug excretion in Wistar rat urine at 4 mg/kg, iv measured after 108 hrs; format: ADME, organism-based; details: read-out: Drug excretion
# Mus musculus [42] = assay: Toxicity in Balb/c mouse assessed as mortality at 20 mg/kg, iv administered three times in a day every 2 days for 15 consecutive days; format: organism-based; details: in vivo, 48 h
# NCI-H460 [43] = assay: Antitumor activity against human NCI-H460 cells xenografted in nude mouse assessed as inhibition of tumor weight at 3 mg/kg, iv administered once in every 2 days for 14 consecutive days relative to control; format: functional; details: 48 h
# NCI-H460 [44] = assay: Antitumor activity against human NCI-H460 cells xenografted in nude mouse assessed as inhibition of tumor weight at 6 mg/kg, iv administered once in every 2 days for 14 consecutive days relative to control; format: functional; details: 48 h
# NCI-H460 [45] = assay: Antitumor activity against human NCI-H460 cells xenografted in nude mouse assessed as inhibition of tumor volume at 9 mg/kg, iv administered once in every 2 days for 14 consecutive days relative to control; format: functional; details: 48 h
# NCI-H460 [46] = assay: Antitumor activity against human NCI-H460 cells xenografted in nude mouse assessed as inhibition of tumor volume at 6 mg/kg, iv administered once in every 2 days for 14 consecutive days cotreated with 50 mg/kg gefitinib once daily for 14 consecutive days relative to control; format: functional
# Mus musculus [47] = assay: Toxicity in nude mouse xenografted with human NCI-H460 cells assessed as death at 3 to 9 mg/kg, iv administered once in every 2 days for 14 consecutive days; format: organism-based; details: in vivo, 48 h
smiles,measurement,setting,value
[2H]/C(c1nc[nH]c1C(C)(C)C)=c1/[nH]c(=O)/c(=C/c2ccccc2)[nH]c1=O,"remaining at 5 min, 1 µM",[1],93.9%
same,"remaining at 10 min, 1 µM",[2],96.8%
same,"remaining at 20 min, 1 µM",[3],95.8%
same,"remaining at 1 h, 1 µM",[4],94.3%
same,"remaining at 1.5 h, 1 µM",[5],99.3%
same,"remaining at 5 min, 50 µM",[6],84.8%
same,"remaining at 20 min, 50 µM",[7],74.8%
same,"remaining at 2 h, 50 µM",[8],31.1%
same,microsomal CLint at 50 µM,[9],16.3 µL/min/mg
same,IC50,Cytochrome P450 2C9,0.56 µM
same,IC50,Cytochrome P450 2C19,3.81 µM
same,IC50,Cytochrome P450 2D6,18.4 µM
same,IC50,Cytochrome P450 3A4,> 50 µM
same,"fraction unbound at 4 h, 2 µM",[10],0.021
same,"fraction unbound at 4 h, 2 µM",[11],0.042
same,half-life,[12],2.27 h
same,AUC(0-t),[13],1330 ng·h/mL
same,Vd,[14],16.4 L/kg
same,MRT last,[15],1.76 h
same,Drug uptake,[16],7096.2 ng/mL/g
same,Drug uptake,[17],1936.4 ng/mL/g
same,Drug uptake,[18],13471.1 ng/mL/g
same,Drug uptake,[19],1366.3 ng/mL/g
same,Drug uptake,[20],1519.6 ng/mL/g
same,Drug uptake,[21],336.9 ng/mL/g
same,Drug uptake,[22],399 ng/mL/g
same,Drug uptake,[23],773.1 ng/mL/g
same,Drug uptake,[24],1684.3 ng/mL/g
same,Drug uptake,[25],636.5 ng/mL/g
same,Drug uptake,[26],287.3 ng/mL/g
same,Drug uptake,[27],381 ng/mL/g
same,Drug uptake,[28],83 ng/mL/g
same,dose excreted at 2 h,[29],0%
same,dose excreted at 4 h,[30],0.11%
same,dose excreted at 24 h,[31],5.65%
same,dose excreted at 36 h,[32],5.85%
same,dose excreted at 72 h,[33],6.23%
same,dose excreted at 108 h,[34],6.83%
same,dose excreted at 0.5 h,[35],0.02%
same,dose excreted at 2 h,[36],0.05%
same,dose excreted at 4 h,[37],0.27%
same,dose excreted at 24 h,[38],0.2%
same,dose excreted at 48 h,[39],0.26%
same,dose excreted at 72 h,[40],0.5%
same,dose excreted at 108 h,[41],0.67%
same,Activity,Mus musculus [42],Toxic
same,inhibition in vivo at 3 mg/kg,NCI-H460 [43],43%
same,inhibition in vivo at 6 mg/kg,NCI-H460 [44],49.5%
same,inhibition in vivo at 9 mg/kg,NCI-H460 [45],68.2%
same,inhibition (INH),NCI-H460 [46],67.8%
same,Activity,Mus musculus [47],Non-Toxic
